Tests used:
Type in all cases: cell-based
Rod bacteria = Rod bacteria cell count and infection rate in fermented mash, sugar cane ethanol production mill trial
Procedure: (§1) Bacterial and yeast cell counts, yeast cell viability and yeast flocculation were determined as described in A. J. Oliveira et al., Curso de treinamento em microbiologia, Piracicaba: FERMENTEC and ESALQ, 1996 and in A. J. Oliveira et al., Métodos para o controle microbiológico na produção de açúcar e álcool, Piracicaba: FERMENTEC, FEALQ and ESALQ, 1996. Bacterial infection rates were calculated as the ratio of the rod bacteria cell count and the yeast cell count.
(§2) Examples 9 to 11 were carried out in a sugar cane ethanol production mill operating 6 fermenters in fed-batch. The fermented mash is sent to a centrifuge which separates yeast cream with an average yeast content of 63% by weight. The yeast cream is diluted with water to an average yeast content of 27% by weight and transferred to a stirred yeast cream recovery tank. Diluted yeast cream is passed continuously from this tank to a stirred yeast treatment tank at a rate of from 42 to 127 m^3/h. Sulfuric acid is added to the yeast treatment tank to maintain a pH in the range from 1.8 to 2.8. The average residence time in both the yeast cream recovery tank and the yeast treatment tank is in the range of from 1.3 to 4.0 h. Fermentation is carried out by charging the acidified yeast concentrate to a fermenter over a 1 to 2 h period, followed by feeding sugar cane mash with a sugar content of 22° Brix and a pH of 5.8 to the fermenter over a 6 h period. Fermentation is continued for a further 2 h without feed and the fermented mash is sent to a centrifuge. Bacterial contamination was monitored by microbiological analysis of samples of fermented mash taken before feeding the mash to a centrifuge. Samples were analyzed for bacterial and yeast cell counts and for yeast cell viability and yeast flocculation.
(§3) In example 9, equilibrium peroxyacetic acid PERACLEAN® 15 of Evonik was dosed to the yeast treatment tank for 28 h in an amount of 60 ppm during days 3 and 4 of the experiment. pH in the yeast treatment tank was maintained in the range of from 1.84 to 2.02.
(§4) In example 10, equilibrium peroxyacetic acid PERACLEAN® 15 of Evonik was dosed to the yeast treatment tank for 43 h during days 6 and 7 of the experiment in an amount that was lowered stepwise from 49 ppm to 20 ppm. pH in the yeast treatment tank was maintained in the range of from 1.97 to 2.60.
(§5) In example 11, equilibrium peroxyacetic acid PERACLEAN® 15 of Evonik was dosed to the yeast cream recovery tank on days 2 and 3 of the experiment for 13 h in an amount of 50 ppm, followed by dosing for 28 h in an amount of 30 ppm. During this period the pH in the yeast cream recovery tank was in the range of from 3.0 to 3.3. Then dosing of peroxyacetic acid to the yeast cream recovery tank was stopped and peroxyacetic acid was dosed to the yeast treatment tank for 18 h in an amount of 30 ppm. During this period the pH in the yeast treatment tank was about 2.0.

Yeast [1] = experiment: Yeast cell count and yeast cell viability, laboratory treatment of yeast cream and fermentation; settings: for viability at 50 µg/mL / viability at 50 ppm / viability at 60 ppm: Saccharomyces cerevisiae
Procedure: as §1
(§6) The examples were carried out with a yeast cream obtained by separating yeast from a fermented sugar cane mush from a sugar cane ethanol production mill operating with batch fermentation and yeast recycle. The yeast cream was diluted with water to a yeast cell content of about 24% by weight and the pH of the diluted yeast cream was adjusted to a value of 1.8 by adding sulfuric acid.
Then 322 ml of acidified diluted yeast cream were placed in a vessel and 678 ml of cane must having a pH of 6.2 were added with mixing in 5 portions with 1 h intervals between additions. Fermentation of the cane must with the acidified diluted yeast cream was carried out at 33° C. for 21 h. The final pH of the fermented mash was 4.8.
In example 2, equilibrium peroxyacetic acid PERACLEAN® 15 of Evonik was added to the acidified diluted yeast cream in an amount of 50 mg/l and the resulting treated yeast concentrate was kept at 30° C. for 1.7 hours before it was analyzed microbiologically. Thereafter, fermentation was carried out as in example 1.
Examples 1 and 2 were repeated without adding peroxyacetic acid in example 3 and with addition of equilibrium peroxyacetic acid PERACLEAN® 15 in an amount of 60 mg/l peroxyacetic acid in example 4. The treated yeast cream was kept at 30° C. for 2 hours before it was analyzed microbiologically and fermentation was started.
as §6, with “that operates” for “operating”, “fed-batch” for “batch”, “27%” for “24%”, “weight. The” for “weight and the”, “4.0.” for “adjusted to a value of 1.8 by adding sulfuric acid.”
In example 6, equilibrium peroxyacetic acid PERACLEAN® 15 of Evonik was added to the diluted yeast cream in an amount of 50 mg/l and the resulting treated yeast concentrate was kept at 30° C. for 2.3 hours before it was analyzed microbiologically.
In example 8, the pH of the diluted yeast cream was adjusted as in example 7, equilibrium peroxyacetic acid PERACLEAN® 15 of Evonik was added to the acidified diluted yeast cream in an amount of 50 mg/l and the resulting treated yeast concentrate was kept at 30° C. for 2.0 hours before it was analyzed microbiologically.

Yeast [2] = experiment: Yeast viability and yeast flocculation in fermented mash, sugar cane ethanol production mill trial
Procedure: as §1, §2, §3, §4, §5

[3] = Example 11, fermenter 3, day 6, after the dosing periods
[4] = Example 11, fermenter 6, day 2, 50 ppm then 30 ppm to yeast cream recovery tank on days 2 and 3, pH 3.0 to 3.3
[5] = Example 11, fermenter 6, day 3, 50 ppm then 30 ppm to yeast cream recovery tank on days 2 and 3, pH 3.0 to 3.3
[6] = Example 11, fermenter 6, day 5, after the dosing periods
[7] = Example 2, 50 ppm, pH 1.8, fermented mash after 21 h
[8] = Example 2, 50 ppm, pH 1.8, treated yeast concentrate, 30° C. 1.7 hours
[9] = Example 4, 60 ppm, pH 1.8, fermented mash after 19 h
[10] = Example 4, 60 ppm, pH 1.8, treated yeast concentrate, 30° C. 2 hours
[11] = Example 6, 50 mg/l, no pH adjustment (pH 4.17), treated yeast concentrate, 30° C. 2.3 hours
[12] = Example 9, fermenter 2, day 3, 60 ppm to yeast treatment tank during days 3 and 4, pH 1.84 to 2.02
[13] = Example 9, fermenter 2, day 5, after addition (60 ppm, days 3 and 4) was stopped
[14] = Example 9, fermenter 4, day 3, 60 ppm to yeast treatment tank during days 3 and 4, pH 1.84 to 2.02
[15] = Example 10, fermenter 2, day 7, 49 ppm lowered stepwise to 20 ppm to yeast treatment tank during days 6 and 7, pH 1.97 to 2.60
[16] = Example 10, fermenter 2, day 8, after dosing during days 6 and 7
[17] = Example 10, fermenter 2, day 9, after dosing during days 6 and 7
[18] = Example 10, fermenter 3, day 7, 49 ppm lowered stepwise to 20 ppm to yeast treatment tank during days 6 and 7, pH 1.97 to 2.60
[19] = Example 10, fermenter 3, day 8, after dosing during days 6 and 7
[20] = Example 10, fermenter 3, day 9, after dosing during days 6 and 7
[21] = Example 11, fermenter 3, day 2, 50 ppm then 30 ppm to yeast cream recovery tank on days 2 and 3, pH 3.0 to 3.3
[22] = Example 11, fermenter 3, day 4, after recovery tank dosing, 30 ppm to yeast treatment tank for 18 h, pH about 2.0

CC(=O)OO [peroxyacetic acid]
Rod bacteria cells/ml (Rod bacteria; [3]): 24*10^6 cells/ml | Infection rate in % (Rod bacteria; [4]): 5% | Rod bacteria cells/ml (Rod bacteria; [4]): 23*10^6 cells/ml | Infection rate in % (Rod bacteria; [5]): 5% | Rod bacteria cells/ml (Rod bacteria; [5]): 14*10^6 cells/ml | Infection rate in % (Rod bacteria; [6]): 10% | Rod bacteria cells/ml (Rod bacteria; [6]): 25*10^6 cells/ml | Yeast cells/ml (Yeast [1]; [7]): 230*10^6 cells/ml | Yeast cells/ml (Yeast [1]; [8]): 550*10^6 cells/ml | Yeast cells/ml (Yeast [1]; [9]): 180*10^6 cells/ml | Yeast cells/ml (Yeast [1]; [10]): 710*10^6 cells/ml | Yeast cells/ml (Yeast [1]; [11]): 820*10^6 cells/ml | Yeast cells/ml (Yeast [1]; Example 8, 50 mg/l, pH adjusted to 2.0 with sulfuric acid (pH 2.40), treated yeast concentrate, 30° C. 2.0 hours): 830*10^6 cells/ml | viability at 50 µg/mL (Yeast [1]; pH 2.4, Example 8, 50 mg/l, pH adjusted to 2.0 with sulfuric acid (pH 2.40), treated yeast concentrate, 30° C. 2.0 hours): 88% | viability at 50 ppm (Yeast [1]; [7]): 81% | viability at 50 ppm (Yeast [1]; [8]): 73% | viability at 60 ppm (Yeast [1]; [9]): 80% | viability at 60 ppm (Yeast [1]; [10]): 83% | viability at 50 µg/mL (Yeast [1]; [11]): 86% | yeast viability in the fermentation (Yeast [1]; treatment of the yeast concentrate at pH 1.8 before using it for the fermentation): does not affect yeast viability | Yeast flocculation in % (Yeast [2]; [12]): 53% | Yeast viability in % (Yeast [2]; [12]): 79% | Yeast flocculation in % (Yeast [2]; Example 9, fermenter 2, day 4, 60 ppm to yeast treatment tank during days 3 and 4, pH 1.84 to 2.02): 5% | Yeast flocculation in % (Yeast [2]; [13]): 58% | Yeast viability in % (Yeast [2]; [13]): 82% | Yeast flocculation in % (Yeast [2]; [14]): 63% | Yeast viability in % (Yeast [2]; [14]): 85% | Yeast flocculation in % (Yeast [2]; Example 9, fermenter 4, day 4, 60 ppm to yeast treatment tank during days 3 and 4, pH 1.84 to 2.02): 0% | Yeast flocculation in % (Yeast [2]; Example 9, fermenter 4, day 6, after addition (60 ppm, days 3 and 4) was stopped): 55% | Yeast flocculation in % (Yeast [2]; Example 10, fermenter 2, day 6, 49 ppm lowered stepwise to 20 ppm to yeast treatment tank during days 6 and 7, pH 1.97 to 2.60): 0% | Yeast flocculation in % (Yeast [2]; [15]): 0% | Yeast viability in % (Yeast [2]; [15]): 75% | Yeast flocculation in % (Yeast [2]; [16]): 0% | Yeast viability in % (Yeast [2]; [16]): 79% | Yeast flocculation in % (Yeast [2]; [17]): 37% | Yeast viability in % (Yeast [2]; [17]): 79% | Yeast flocculation in % (Yeast [2]; Example 10, fermenter 3, day 6, 49 ppm lowered stepwise to 20 ppm to yeast treatment tank during days 6 and 7, pH 1.97 to 2.60): 0% | Yeast flocculation in % (Yeast [2]; [18]): 0% | Yeast viability in % (Yeast [2]; [18]): 70% | Yeast flocculation in % (Yeast [2]; [19]): 0% | Yeast viability in % (Yeast [2]; [19]): 78% | Yeast flocculation in % (Yeast [2]; [20]): 45% | Yeast viability in % (Yeast [2]; [20]): 84% | Yeast flocculation in % (Yeast [2]; [21]): 38% | Yeast viability in % (Yeast [2]; [21]): 82% | Yeast flocculation in % (Yeast [2]; [22]): 0% | Yeast viability in % (Yeast [2]; [22]): 76% | Yeast flocculation in % (Yeast [2]; [3]): 66% | Yeast flocculation in % (Yeast [2]; [4]): 0% | Yeast flocculation in % (Yeast [2]; [5]): 0% | Yeast viability in % (Yeast [2]; [5]): 89% | Yeast flocculation in % (Yeast [2]; [6]): 65%
